Experimental data: patent US20140213446A1, “HERBICIDAL COMPOSITIONS AND METHODS USING COMBINATIONS OF 4-AMINO-3-CHLORO-6-(4-CHLORO-2-FLUORO-3-METHOXYPHENYL)PYRIDINE-2-CARBOXYLIC ACID OR A DERIVATIVE THEREOF AND AN ARYLOXYPHENOXY PROPIONATE ACCASE INHIBITOR HERBICIDE” (DOW AGROSCIENCES LLC, priority 2013, published 2014)
Where “and” joins values, the source holds several entries; their conditions need not be identical. Identical values can stand only once.

Columns and labels:
Assay in all cases: Postemergent herbicidal activity, greenhouse
Assay type in all cases: in vivo
[1] = system: DIGSA Digitaria sanguinalis (L.) Scop. (large crabgrass)
Procedure: (§1) Evaluation of Postemergent Herbicidal Activity. Seeds or nutlets of the desired test plant species were planted in Sun Gro Metro-Mix® 360 planting mixture, which typically has a pH of 6.0 to 6.8 and an organic matter content of about 30 percent, in plastic pots with a surface area of 64 square centimeters (cm^2). When required to ensure good germination and healthy plants, a fungicide treatment and/or other chemical or physical treatment was applied. The plants were grown for 7-21 days (d) in a greenhouse with an approximate 15 hour (h) photoperiod which was maintained at about 23-29° C. during the day and 22-28° C. during the night. Nutrients and water were added on a regular basis and supplemental lighting was provided with overhead metal halide 1000-Watt lamps as necessary. The plants were employed for testing when they reached the first or second true leaf stage.
(§2) A weighed amount, determined by the highest rate to be tested, of each test compound was placed in a 25 milliliter (mL) glass vial and was dissolved in 4 mL of a 97:3 volume per volume (v/v) mixture of acetone and dimethyl sulfoxide (DMSO) to obtain concentrated stock solutions. […] The concentrated stock solutions obtained were diluted with 20 mL of an aqueous mixture containing acetone, water, isopropyl alcohol, DMSO, Atplus 411F crop oil concentrate, and Triton® X-155 surfactant in a 48.5:39:10:1.5:1.0:0.02 v/v ratio to obtain spray solutions containing the highest application rates. Additional application rates were obtained by serial dilution of 12 mL of the high rate solution into a solution containing 2 mL of a 97:3 v/v mixture of acetone and DMSO and 10 mL of an aqueous mixture containing acetone, water, isopropyl alcohol, DMSO, Atplus 411F crop oil concentrate, and Triton X-155 surfactant in a 48.5:39:10:1.5:1.0:0.02 v/v ratio to obtain ½X, ¼X, ⅛X and 1/16X rates of the high rate. Compound requirements are based upon a 12 mL application volume at a rate of 187 liters per hectare (L/ha). Formulated compounds were applied to the plant material with an overhead Mandel track sprayer equipped with 8002E nozzles calibrated to deliver 187 L/ha over an application area of 0.503 square meters (m^2) at a spray height of 18 inches ([…]) above the average plant canopy height. Control plants were sprayed in the same manner with the solvent blank.
(§3) Treatments consisted of the methyl ester of 4-amino-3-chloro-6-(4-chloro-2-fluoro-3-methoxyphenyl)pyridine-2-carboxylic acid (Cmpd 1) as technical grade material and fluazifop-P-butyl (Fusilade® DX), haloxyfop-P-methyl (GALLANT® super), and quizalofop-P-ethyl (Assure® II) alone and in combination. The form of compound of formula (I) and fluazifop-P-butyl, haloxyfop-P-methyl, and quizalofop-P-ethyl were applied on an acid equivalent basis.
(§4) The treated plants and control plants were placed in a greenhouse as described above and watered by subirrigation to prevent wash-off of the test compounds. After 14 d, the condition of the test plants as compared with that of the untreated plants was determined visually and scored on a scale of 0 to 100 percent where 0 corresponds to no injury and 100 corresponds to complete kill.
(§5) Results of testing mixtures in accordance with this disclosure and of the components of the mixtures separately against various common weeds in greenhouse trials are reported in the following tables. The reported values are of percent (%) control or percent (%) injury, visually rated. Colby's equation was used to determine the herbicidal effects expected from the mixtures (Colby, S. R. Calculation of the synergistic and antagonistic response of herbicide combinations. Weeds 1967, 15, 20-22.).
(§6) More specifically, the following equation was used to calculate the expected activity of mixtures containing two active ingredients, A and B:
(§7) A=observed efficacy of active ingredient A at the same concentration as used in the mixture; B=observed efficacy of active ingredient B at the same concentration as used in the mixture. […]

[2] = system: CHEAL Chenopodium album L. (common lambsquarters)
Procedure: as §1, §2, §3, §4, §5, §6, §7

[3] = system: EPHHL Euphorbia heterophylla L. (wild poinsettia)
Procedure: as §1, §2, §3, §4, §5, §6, §7

[4] = system: GLXMA Glycine max (soybean)
Procedure: as §1, §2, §3, §4, §5, §6, §7

[5] = system: SORVU Sorghum vulgare (common sorghum)
Procedure: as §1, §2, §3, §4, §5, §6, §7

[6] = system: HELAN Helianthus annuus L. (common sunflower)
Procedure: as §1, §2, §3, §4, §5, §6, §7

[7] = system: IPOHE Ipomoea hederacea (L.) Jacq. (ivyleaf momingglory)
Procedure: as §1, §2, §3, §4, §5, §6, §7

[8] = system: STEME Stellaria media (L.) Vill. (common chickweed)
Procedure: as §1, §2, §3, §4, §5, §6, §7

[9] = system: CIRAR Cirsium arvense (L.) Scop. (Canada thistle)
Procedure: as §1, §2, §3, §4, §5, §6, §7

[10] = system: BRSNW Brassica napus (winter oilseed rape)
Procedure: as §1, §2, §3, §4, §5, §6, §7

[11] = system: SETFA Setaria faberi Herrm. (giant foxtail)
Procedure: as §1, §2, §3, §4, §5, §6, §7

[12] = system: AVEFA Avena fatua L. (wild oat)
Procedure: as §1, §2, §3, §4, §5, §6, §7

[13] = system: VIOTR Viola tricolor L. (wild violet)
Procedure: as §1, §2, §3, §4, §5, §6, §7

[14] = system: CYPES Cyperus esculentus L. (yellow nutsedge)
Procedure: as §1, §2, §3, §4, §5, §6, §7

[15] = system: AMARE Amaranthus retroflexus L. (redroot pigweed)
Procedure: as §1, §2, §3, §4, §5, §6, §7

[16] = system: ABUTH Abutilon theophrasti Medik. (velvetleaf)
Procedure: as §1, §2, §3, §4, §5, §6, §7

Measured: Visual Growth Reduction (%) 14 DAA Obs

COC(=O)c1nc(-c2ccc(Cl)c(OC)c2F)cc(N)c1Cl [Cmpd 1, methyl ester of 4-amino-3-chloro-6-(4-chloro-2-fluoro-3-methoxyphenyl)pyridine-2-carboxylic acid]
60%: [15]; Cmpd 1 2.5 g ae/ha
20%: [6]; Cmpd 1 1.25 g ae/ha | [6]; Cmpd 1 2.5 g ae/ha | [7]; Cmpd 1 2.5 g ae/ha | [7]; Cmpd 1 5 g ae/ha | [8]; Cmpd 1 2.5 g ae/ha | [10]; Cmpd 1 5 g ae/ha
50%: [14]; Cmpd 1 1.25 g ae/ha | [15]; Cmpd 1 1.25 g ae/ha
50% and 30%: [9]; Cmpd 1 2.5 g ae/ha
5%: [10]; Cmpd 1 2.5 g ae/ha
40%: [6]; Cmpd 1 5 g ae/ha | [8]; Cmpd 1 5 g ae/ha
10%: [7]; Cmpd 1 1.25 g ae/ha | [13]; Cmpd 1 1.25 g ae/ha | [13]; Cmpd 1 2.5 g ae/ha
95%: [3]; Cmpd 1 1.25 g ae/ha | [3]; Cmpd 1 2.5 g ae/ha | [3]; Cmpd 1 5 g ae/ha | [4]; Cmpd 1 2.5 g ae/ha
85%: [16]; Cmpd 1 2.5 g ae/ha
93%: [2]; Cmpd 1 5 g ae/ha | [14]; Cmpd 1 5 g ae/ha
30%: [8]; Cmpd 1 1.25 g ae/ha | [9]; Cmpd 1 1.25 g ae/ha | [9]; Cmpd 1 5 g ae/ha | [11]; Cmpd 1 5 g ae/ha | [13]; Cmpd 1 5 g ae/ha
97%: [4]; Cmpd 1 5 g ae/ha
70%: [2]; Cmpd 1 1.25 g ae/ha | [4]; Cmpd 1 1.25 g ae/ha
0%: [1]; Cmpd 1 1.25 g ae/ha | [1]; Cmpd 1 2.5 g ae/ha | [1]; Cmpd 1 5 g ae/ha | [5]; Cmpd 1 1.25 g ae/ha | [5]; Cmpd 1 2.5 g ae/ha | [5]; Cmpd 1 5 g ae/ha | [10]; Cmpd 1 1.25 g ae/ha | [11]; Cmpd 1 1.25 g ae/ha | [11]; Cmpd 1 2.5 g ae/ha | [12]; Cmpd 1 1.25 g ae/ha | [12]; Cmpd 1 2.5 g ae/ha | [12]; Cmpd 1 5 g ae/ha
90%: [14]; Cmpd 1 2.5 g ae/ha | [15]; Cmpd 1 5 g ae/ha | [16]; Cmpd 1 5 g ae/ha
80%: [2]; Cmpd 1 2.5 g ae/ha | [16]; Cmpd 1 1.25 g ae/ha
